Laboratory results taken from US8450313B2, “2,3-diaryl- or heteroaryl-substituted 1,1,1-trifluoro-2-hydroxypropyl compounds” (Hoffmann-La Roche Inc., priority 2009, dated 2013).

Molecular target: T1, full length human recombinant glucocorticoid receptor (Homo sapiens, UniProt P04150)
T1 construct: It contains some partially purified full length human recombinant glucocorticoid receptor; purchased Panvera/Invitrogen PV4302
T1 sequence (P04150 1-777): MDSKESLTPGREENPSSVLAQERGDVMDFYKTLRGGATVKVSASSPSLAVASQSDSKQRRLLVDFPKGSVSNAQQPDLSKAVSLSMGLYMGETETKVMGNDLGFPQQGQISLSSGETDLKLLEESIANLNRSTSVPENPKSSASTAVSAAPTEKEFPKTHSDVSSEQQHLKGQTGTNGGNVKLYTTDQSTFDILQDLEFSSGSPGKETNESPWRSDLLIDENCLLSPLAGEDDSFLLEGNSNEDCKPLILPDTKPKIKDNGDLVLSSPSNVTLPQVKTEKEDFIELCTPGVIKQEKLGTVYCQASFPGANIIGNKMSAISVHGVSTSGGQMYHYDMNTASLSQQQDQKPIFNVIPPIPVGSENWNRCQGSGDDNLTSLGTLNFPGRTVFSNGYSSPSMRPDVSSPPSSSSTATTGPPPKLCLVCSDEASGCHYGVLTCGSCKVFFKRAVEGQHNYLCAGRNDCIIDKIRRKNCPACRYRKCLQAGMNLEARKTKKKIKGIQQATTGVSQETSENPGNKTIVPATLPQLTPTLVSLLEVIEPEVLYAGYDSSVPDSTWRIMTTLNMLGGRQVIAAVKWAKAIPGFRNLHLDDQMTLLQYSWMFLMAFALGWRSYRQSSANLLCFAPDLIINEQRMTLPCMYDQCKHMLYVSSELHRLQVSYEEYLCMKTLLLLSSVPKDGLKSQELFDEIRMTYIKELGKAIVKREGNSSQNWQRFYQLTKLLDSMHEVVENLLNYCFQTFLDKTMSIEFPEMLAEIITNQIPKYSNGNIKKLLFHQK
Experiment: Glucocorticoid Receptor Binding Assay (Glucocorticoid Receptor Competitor Assay far red kit, fluorescence polarization)
Conditions: competition with fluorescent GR ligand Fluormone GS Far Red, 3 hours at 22° C., pH 7.4; Ki calculated from IC50 by Cheng-Prusoff
Summary of the method: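 Compounds in serial dilution (from intermediate 4.2% DMSO stock) displace Fluormone GS Far Red from full-length human recombinant GR with stabilizing peptide, pH 7.4, incubated 3 hours at 22° C dark. Polarized fluorescence (610–660 nm) gives IC50 via sigmoidal fit, converted to Ki by Cheng-Prusoff.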

| SMILES | Ki [nM] |
| --- | --- |
| C[C@@H](c1ccc(Oc2ccc(C(=O)O)c(C(F)(F)F)n2)cc1Cl)[C@](O)(c1ccc2c(c1)n(C)c(=O)n2C)C(F)(F)F (stereo in doubt) [Example 115, 6-{3-Chloro-4-[2-(1,3-dimethyl-2-oxo-2,3-dihydro-1H-benzoimidazol-5-yl)-3,3,3-trifluoro-2-hydroxy-1-methyl-propyl]-phenoxy}-2-trifluoromethyl-nicotinic acid] | 1.1 |
| COC(=O)c1ccc(-c2ccc([C@@H](C)[C@@](O)(c3ccc4oc(=O)n(C)c4c3)C(F)(F)F)c(Cl)c2)nc1 (stereo in doubt) [Example 127, 6-{3-Chloro-4-[3,3,3-trifluoro-2-hydroxy-1-methyl-2-(3-methyl-2-oxo-2,3-dihydro-benzooxazol-5-yl)-propyl]-phenyl}-nicotinic acid methyl ester] | 0.7 |
| C[C@H](c1ccc(-c2ccc(OCC(=O)O)cc2)cc1Cl)[C@@](O)(c1ccc2oc(=O)n(C)c2c1)C(F)(F)F (stereo in doubt) [Example 130, {3′-Chloro-4′-[3,3,3-trifluoro-2-hydroxy-1-methyl-2-(3-methyl-2-oxo-2,3-dihydro-benzooxazol-5-yl)-propyl]-biphenyl-4-yloxy}-acetic acid] | 0.5 |
| COc1cc(-c2ccc([C@@H](C)[C@@](O)(c3ccc4oc(=O)n(C)c4c3)C(F)(F)F)c(Cl)c2)ccc1C(=O)O (stereo in doubt) [Example 132, 3′-Chloro-3-methoxy-4′-[3,3,3-trifluoro-2-hydroxy-1-methyl-2-(3-methyl-2-oxo-2,3-dihydro-benzooxazol-5-yl)-propyl]-biphenyl-4-carboxylic acid] | 3 |
| C[C@@H](c1ccc(-c2ccc(C(=O)O)c(F)c2)cc1Cl)[C@](O)(c1cc2c(cc1F)OCC(=O)N2C)C(F)(F)F (stereo in doubt) [Example 137, 3′-Chloro-3-fluoro-4′-[3,3,3-trifluoro-2-(7-fluoro-4-methyl-3-oxo-3,4-dihydro-2H-benzo[1,4]oxazin-6-yl)-2-hydroxy-1-methyl-propyl]-biphenyl-4-carboxylic acid] | 20 |
| C[C@@H](c1ccc(Oc2ccc(C(=O)O)c(Cl)c2)cc1Cl)[C@](O)(c1cc2c(cc1F)OCC(=O)N2C)C(F)(F)F (stereo in doubt) [Example 139, 2-Chloro-4-{3-chloro-4-[3,3,3-trifluoro-2-(7-fluoro-4-methyl-3-oxo-3,4-dihydro-2H-benzo[1,4]oxazin-6-yl)-2-hydroxy-1-methyl-propyl]-phenoxy}-benzoic acid] | 2.7 |
| C[C@H](c1ccc(Oc2ccc(C(=O)O)c(Cl)c2)cc1Cl)[C@@](O)(c1ccc2[nH]c(=O)cc(C(F)(F)F)c2c1)C(F)(F)F (stereo in doubt) [Example 140, 2-Chloro-4-{3-chloro-4-[3,3,3-trifluoro-2-hydroxy-1-methyl-2-(2-oxo-4-trifluoromethyl-1,2-dihydro-quinolin-6-yl)-propyl]-phenoxy}-benzoic acid] | 22 |
| Cc1cc([C@@](O)([C@@H](C)c2ccc(Oc3ccc(C(=O)O)c(F)c3)cc2Cl)C(F)(F)F)cc(C)c1C#N (stereo in doubt) [Example 142, 4-{3-Chloro-4-[2-(4-cyano-3,5-dimethyl-phenyl)-3,3,3-trifluoro-2-hydroxy-1-methyl-propyl]-phenoxy}-2-fluoro-benzoic acid] | 2.1 |
| COC(=O)c1ccc(Oc2ccc([C@H](C)[C@](O)(c3cc(C)c(C#N)c(C)c3)C(F)(F)F)c(Cl)c2)cc1Cl (stereo in doubt) [Example 143, 2-Chloro-4-{3-chloro-4-[2-(4-cyano-3,5-dimethyl-phenyl)-3,3,3-trifluoro-2-hydroxy-1-methyl-propyl]-phenoxy}-benzoic acid methyl ester] | 1.7 |
| COC(=O)c1cnc(Oc2ccc([C@H](C)[C@](O)(c3cc(C)c(C#N)c(C)c3)C(F)(F)F)c(Cl)c2)cc1C(F)(F)F (stereo in doubt) [Example 145, 6-{3-Chloro-4-[2-(4-cyano-3,5-dimethyl-phenyl)-3,3,3-trifluoro-2-hydroxy-1-methyl-propyl]phenoxy}-4-trifluoromethyl-nicotinic acid methyl ester] | 3.1 |
| Cc1cc([C@@](O)([C@@H](C)c2ccc(Oc3cc(C(F)(F)F)c(C(=O)O)cn3)cc2Cl)C(F)(F)F)cc(C)c1C#N (stereo in doubt) [Example 146, 6-{3-Chloro-4-[2-(4-cyano-3,5-dimethyl-phenyl)-3,3,3-trifluoro-2-hydroxy-1-methyl-propyl]-phenoxy}-4-trifluoromethyl-nicotinic acid] | 1.4 |
| COC(=O)c1ccc(Oc2ccc([C@H](C)[C@](O)(c3cc(C)c(C#N)c(C)c3)C(F)(F)F)c(Cl)c2)nc1 (stereo in doubt) [Example 147, 6-{3-Chloro-4-[2-(4-cyano-3,5-dimethyl-phenyl)-3,3,3-trifluoro-2-hydroxy-1-methyl-propyl]-phenoxy}-nicotinic acid methyl ester] | 2.8 |
| Cc1cc([C@@](O)([C@@H](C)c2ccc(Oc3ccc(C(=O)O)cn3)cc2Cl)C(F)(F)F)cc(C)c1C#N (stereo in doubt) [Example 148, 6-{3-Chloro-4-[2-(4-cyano-3,5-dimethyl-phenyl)-3,3,3-trifluoro-2-hydroxy-1-methyl-propyl]-phenoxy}-nicotinic acid] | 1.6 |
| COC(=O)c1cnc(Oc2ccc([C@H](C)[C@](O)(c3cc(C)c(C#N)c(C)c3)C(F)(F)F)c(Cl)c2)c(Cl)c1 (stereo in doubt) [Example 149, 5-Chloro-6-{3-chloro-4-[2-(4-cyano-3,5-dimethyl-phenyl)-3,3,3-trifluoro-2-hydroxy-1-methyl-propyl]-phenoxy}-nicotinic acid methyl ester] | 1.7 |

Results, then the compound that gave them:

| Ki [nM] | SMILES |
| --- | --- |
| 1.3 | Cc1cc([C@@](O)([C@@H](C)c2ccc(Oc3ncc(C(=O)O)cc3Cl)cc2Cl)C(F)(F)F)cc(C)c1C#N (stereo in doubt) [Example 150, 5-Chloro-6-{3-chloro-4-[2-(4-cyano-3,5-dimethyl-phenyl)-3,3,3-trifluoro-2-hydroxy-1-methyl-propyl]-phenoxy}-nicotinic acid] |
| 18.5 | C[C@H](c1ccc(-c2ccc(F)c(C(=O)O)c2)cc1Cl)[C@@](O)(c1ccc(C#N)cc1)C(F)(F)F (stereo in doubt) [Example 151, 3′-Chloro-4′-[2-(4-cyano-phenyl)-3,3,3-trifluoro-2-hydroxy-1-methyl-propyl]-4-fluoro-biphenyl-3-carboxylic acid] |
| 33.7 | C[C@H](c1ccc(-c2ccc(F)c(C(=O)O)c2)cc1Cl)[C@@](O)(c1cccc(C#N)c1)C(F)(F)F (stereo in doubt) [Example 154, 3′-Chloro-4′-[2-(3-cyano-phenyl)-3,3,3-trifluoro-2-hydroxy-1-methyl-propyl]-4-fluoro-biphenyl-3-carboxylic acid] |
| 19.8 | C[C@H](c1ccc(Oc2ccc(C(=O)O)cn2)cc1Cl)[C@@](O)(c1ccc(C#N)cc1)C(F)(F)F (stereo in doubt) [Example 157, 6-{3-Chloro-4-[2-(4-cyano-phenyl)-3,3,3-trifluoro-2-hydroxy-1-methyl-propyl]-phenoxy}-nicotinic acid] |
| 7.5 | C[C@H](c1ccc(-c2ccc(C(=O)O)c(F)c2)cc1Cl)[C@@](O)(c1ccc2c(c1)OCC(=O)N2C)C(F)(F)F (stereo in doubt) [Example 164, 3′-Chloro-3-fluoro-4′-[3,3,3-trifluoro-2-hydroxy-1-methyl-2-(4-methyl-3-oxo-3,4-dihydro-2H-benzo[1,4]oxazin-7-yl)-propyl]-biphenyl-4-carboxylic acid] |
| 0.9 | C[C@H](c1ccc(Oc2ncc(C(=O)O)cc2Cl)cc1Cl)[C@@](O)(c1ccc2c(c1)OCC(=O)N2C)C(F)(F)F (stereo in doubt) [Example 165, 5-Chloro-6-{3-chloro-4-[3,3,3-trifluoro-2-hydroxy-1-methyl-2-(4-methyl-3-oxo-3,4-dihydro-2H-benzo[1,4]oxazin-7-yl)-propyl]-phenoxy}-nicotinic acid] |
| 2.7 | C[C@H](c1ccc(Oc2ccc(C(=O)O)c(F)c2)cc1Cl)[C@@](O)(c1ccc2c(c1)OCC(=O)N2C)C(F)(F)F (stereo in doubt) [Example 166, 4-{3-Chloro-4-[3,3,3-trifluoro-2-hydroxy-1-methyl-2-(4-methyl-3-oxo-3,4-dihydro-2H-benzo[1,4]oxazin-7-yl)-propyl]phenoxy}-2-fluoro-benzoic acid] |
| 210 | C[C@H](c1ccc(-c2ccc(C(=O)O)c(F)c2)cc1Cl)[C@@](O)(c1ccc2c(c1)N(C)CCO2)C(F)(F)F (stereo in doubt) [Example 170, 3′-Chloro-3-fluoro-4′-[3,3,3-trifluoro-2-hydroxy-1-methyl-2-(4-methyl-3,4-dihydro-2H-benzo[1,4]oxazin-6-yl)-propyl]-biphenyl-4-carboxylic acid] |
